Assay results published in patent publication US11952349B2, “Anti-cancer nuclear hormone receptor-targeting compounds” (Nuvation Bio Inc., priority 2019, dated 2024).

Key:
[1] = biological target: T1, Progesterone PR-B receptors from human breast carcinoma T47D cells (Homo sapiens, UniProt P06401); test: PR binding assay, [3H]Progesterone; settings: Table 8; 0.5 nM [3H]Progesterone
T1 construct: endogenous in cells; host or cells: T47D human breast carcinoma cells (cell supernatant)
T1 sequence (P06401 1-933): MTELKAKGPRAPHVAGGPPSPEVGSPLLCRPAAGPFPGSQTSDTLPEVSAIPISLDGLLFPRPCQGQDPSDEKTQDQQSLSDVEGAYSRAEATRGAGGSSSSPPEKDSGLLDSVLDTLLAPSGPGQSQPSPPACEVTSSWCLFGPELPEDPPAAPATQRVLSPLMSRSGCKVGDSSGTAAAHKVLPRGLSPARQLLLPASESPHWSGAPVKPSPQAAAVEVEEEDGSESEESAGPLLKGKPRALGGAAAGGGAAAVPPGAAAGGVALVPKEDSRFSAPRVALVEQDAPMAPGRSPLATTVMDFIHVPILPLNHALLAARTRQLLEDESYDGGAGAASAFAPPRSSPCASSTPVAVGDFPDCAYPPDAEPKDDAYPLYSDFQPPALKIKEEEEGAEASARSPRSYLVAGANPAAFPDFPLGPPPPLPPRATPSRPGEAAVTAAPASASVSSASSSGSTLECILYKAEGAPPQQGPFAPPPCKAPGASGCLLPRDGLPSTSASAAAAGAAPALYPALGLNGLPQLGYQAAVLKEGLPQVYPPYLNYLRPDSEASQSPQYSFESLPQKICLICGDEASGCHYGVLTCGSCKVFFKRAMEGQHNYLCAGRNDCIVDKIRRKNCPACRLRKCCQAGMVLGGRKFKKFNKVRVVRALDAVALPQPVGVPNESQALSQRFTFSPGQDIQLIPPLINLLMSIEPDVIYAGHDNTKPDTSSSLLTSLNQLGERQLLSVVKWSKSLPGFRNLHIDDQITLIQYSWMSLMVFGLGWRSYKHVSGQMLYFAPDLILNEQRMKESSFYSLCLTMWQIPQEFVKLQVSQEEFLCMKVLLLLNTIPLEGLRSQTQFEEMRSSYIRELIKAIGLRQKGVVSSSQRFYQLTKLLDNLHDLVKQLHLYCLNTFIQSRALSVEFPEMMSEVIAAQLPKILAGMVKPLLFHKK
Description: PR binding assay: Progesterone PR-B receptors from human breast carcinoma T47D cells are used in modified Na2HPO4/NaH2PO4 buffer pH 7.4. Compounds were screened at a range of doses (Top dose 40 nM, 4 fold serial dilution, 8 point dose response) and were dispensed into the assay plate. Supernatant of 1.2×10^5 cells aliquot was added to the assay plate and was incubated with 0.5 nM [^3H]Progesterone for 20 hours at 4° C. Membranes are filtered and washed, the filters are then counted to determine [^3H]Progesterone specifically bound. Binding IC50 was determined as the concentration where 50% inhibition of radioligand binding was observed.

[2] = biological target: T2, ligand binding domain of the glucocorticoid receptor (Homo sapiens, UniProt P04150); test: GR antagonism assay (HEK293, dexamethasone 1.5 nM, Dual-glo); type: cell-based; settings: Table 8
T2 construct: expressed in transfected cells
T2 sequence (P04150 524-758 limits assumed): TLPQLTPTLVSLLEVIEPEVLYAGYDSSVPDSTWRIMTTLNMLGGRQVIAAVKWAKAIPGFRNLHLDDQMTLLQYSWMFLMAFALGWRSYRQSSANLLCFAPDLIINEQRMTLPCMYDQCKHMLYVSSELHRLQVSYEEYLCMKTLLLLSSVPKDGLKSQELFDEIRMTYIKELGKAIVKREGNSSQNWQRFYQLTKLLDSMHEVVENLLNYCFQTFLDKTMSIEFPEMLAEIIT
Description: GR antagonism assay: To evaluate GR antagonist activity, test compound was added to the assay plate (top dose 5 μM, 4 fold serial dilution, 8 point dose response). HEK293 cells stably expressing the ligand binding domain of the glucocorticoid receptor were seeded at a density of 40000 cells/well in the assay plate. The assay plate was then incubated at 37° C., 5% CO2 for 30 minutes. Dexamethasone was added to the assay plate at 1.5 nM final concentration and the assay plate was incubated at 37° C., 5% CO2 for 20 h. After the incubation period, Dual-glo luciferase reagent was added to the assay plate and mixed at room temperature for 20 minutes on an orbital shaker, before reading out on the EnVision plate reader.

[3] = biological target: T3, Progesterone Receptor (PR)-LBD (Homo sapiens, UniProt P06401); test: PR coactivator antagonist assay; type: biochemical; settings: Table 8; 10 nM progesterone; read-out: PR antagonism
T3 sequence (P06401 679-913 limits assumed): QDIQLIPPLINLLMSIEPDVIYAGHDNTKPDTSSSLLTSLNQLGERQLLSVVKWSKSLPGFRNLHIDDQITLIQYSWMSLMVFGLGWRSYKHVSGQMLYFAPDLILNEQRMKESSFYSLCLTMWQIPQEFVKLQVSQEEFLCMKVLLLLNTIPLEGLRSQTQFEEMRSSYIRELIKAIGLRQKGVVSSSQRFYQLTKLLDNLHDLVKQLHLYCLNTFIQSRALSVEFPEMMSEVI
Description: PR coactivator antagonist assay: Test compound (Top dose 10 μM, 4 fold serial dilution, 8 point dose response) and/or vehicle was incubated with the 2.5 nM Progesterone Receptor (PR)-LBD and coactivator peptide for 30 minutes at RT. Determination of the amount of complex formed is read spectrofluorimetrically (excitation: 337 nm, emission: 520/490 nm). Test compound-induced inhibition of 10 nM progesterone-induced fluorescence response by 50 percent or more (>50%) indicates receptor antagonist activity.

[4] = test system: T47D cells; test: Cell viability assay (CellTiterGlo, 6 days) T47D; type: cell-based; settings: Homo sapiens, 144 h, Table 8
Description: Cell viability assay: LNCap, 22Rv1, and T47D cells were seeded at a density of 1500-2000 cells/well in 96 well plates, and a ‘T0’ (timepoint 0) was included along with the assay plate. The plates were then incubated at 37° C., 5% CO2 in a cell culture incubator overnight. On the next day, the ‘T0’ plate was assayed using CellTiterGlo (Promega, Inc) according to the manufacturer's instructions. The appropriate compounds were diluted in DMSO and added to the assay plate (final DMSO concentration of 0.2%) on the next day. The assay plates were incubated for 6 days at 37° C., 5% CO2. After the incubation period, the plates were assayed using CellTiterGlo (Promega, Inc) according to the manufacturer's instructions and luminescence was read on the EnVision plate reader. Inhibition the tested compounds was determined by the following formula: Inhibition rate (%)=(1−(RLU compound−RLU day0)/(RLU control−RLU day0))*100%. GraphPadPrism was used to analyze the data and determine absolute IC50 values.

SMILES	IC50 [1] [nM]	IC50 [2] [nM]	IC50 [3] [nM]	IC50 [4] [nM]
CC#C[C@]1(O)CC[C@H]2[C@@H]3CCC4=CC(=O)CCC4=C3[C@@H](c3ccc(N(C)CCCCCC(=O)N4CCN(C(=O)c5cc(Cc6n[nH]c(=O)c7ccccc67)ccc5F)CC4)cc3)C[C@@]21C [Compound 135, 4-(4-fluoro-3-(4-(6-((4-((8S,11R,13S,14S,17S)-17-hydroxy-13-methyl-3-oxo-17-(prop-1-ynyl)-2,3,6,7,8,11,12,13,14,15,16,17-dodecahydro-1H-cyclopenta[a]phenanthren-11-yl)phenyl)(methyl)amino)hexanoyl)piperazine-1-carbonyl)benzyl)phthalazin-1(2H)-one]	< 10	< 10	< 10	100 to 1000
CC(=O)O[C@]1(C(C)=O)CC[C@H]2[C@@H]3CCC4=CC(=O)CCC4=C3[C@@H](c3ccc(N(C)CCCCCC(=O)N4CCN(C(=O)c5cc(Cc6n[nH]c(=O)c7ccccc67)ccc5F)CC4)cc3)C[C@@]21C [Compound 1378, (8S,11R,13S,14S,17R)-17-acetyl-11-(4-((6-(4-(2-fluoro-5-((4-oxo-3,4-dihydrophthalazin-1-yl)methyl)benzoyl)piperazin-1-yl)-6-oxohexyl)(methyl)amino)phenyl)-13-methyl-3-oxo-2,3,6,7,8,11,12,13,14,15,16,17-dodecahydro-1H-cyclopenta[a]phenanthren-17-yl acetate]	< 10	< 10	< 10	100 to 1000
C[C@]12CC[C@H]3[C@@H](CCC4=CC(=O)CC[C@@]43C)[C@@H]1CC[C@@H]2C(=O)COCCCCCC(=O)N1CCN(C(=O)c2cc(Cc3n[nH]c(=O)c4ccccc34)ccc2F)CC1 [Compound 1386, 4-(3-(4-(6-(2-((8S,9S,10R,13S,14S,17S)-10,13-dimethyl-3-oxo-2,3,6,7,8,9,10,11,12,13,14,15,16,17-tetradecahydro-1H-cyclopenta[a]phenanthren-17-yl)-2-oxoethoxy)hexanoyl)piperazine-1-carbonyl)-4-fluorobenzyl)phthalazin-1(2H)-one]	10 to 100	100 to 1000	> 10000	100 to 1000

Other lines, results leading:

IC50 [1] [nM]	IC50 [2] [nM]	IC50 [3] [nM]	IC50 [4] [nM]	SMILES
< 10	10 to 100	< 10	1000 to 10000	CC(=O)O[C@]1(C(C)=O)CC[C@H]2[C@@H]3CCC4=CC(=O)CCC4=C3[C@@H](c3ccc(N(C)CCCCCC(=O)NCCOCCOCC(=O)N4CCN(C(=O)c5cc(Cc6n[nH]c(=O)c7ccccc67)ccc5F)CC4)cc3)C[C@@]21C [Compound 1384, (8S,11R,13S,14S,17R)-17-acetyl-11-(4-((6-(2-(2-(2-(4-(2-fluoro-5-((4-oxo-3,4-dihydrophthalazin-1-yl)methyl)benzoyl)piperazin-1-yl)-2-oxoethoxy)ethoxy)ethylamino)-6-oxohexyl)(methyl)amino)phenyl)-13-methyl-3-oxo-2,3,6,7,8,11,12,13,14,15,16,17-dodecahydro-1H-cyclopenta[a]phenanthren-17-yl acetate]
< 10	10 to 100	< 10	> 10000	CC#C[C@]1(O)CC[C@H]2[C@@H]3CCC4=CC(=O)CCC4=C3[C@@H](c3ccc(N(C)CCCCCC(=O)NCCOCCOCC(=O)N4CCN(C(=O)c5cc(Cc6n[nH]c(=O)c7ccccc67)ccc5F)CC4)cc3)C[C@@]21C [Compound 1429, N-(2-(2-(2-(4-(2-fluoro-5-((4-oxo-3,4-dihydrophthalazin-1-yl)methyl)benzoyl)piperazin-1-yl)-2-oxoethoxy)ethoxy)ethyl)-6-((4-((8S,11R,13S,14S,17S)-17-hydroxy-13-methyl-3-oxo-17-(prop-1-ynyl)-2,3,6,7,8,11,12,13,14,15,16,17-dodecahydro-1H-cyclopenta[a]phenanthren-11-yl)phenyl)(methyl)amino)hexanamide]
